# Data from ChEMBL document CHEMBL1671662, “In vitro activities of telavancin and six comparator agents against anaerobic bacterial isolates” (2009).
# What was measured:
# Type in all cases: functional
# [1] = test system: Prevotella oris; assay: Antibacterial activity against Prevotella oris by CLSI M11-A6 agar dilution method; conditions: Segatella oris
# [2] = test system: Parabacteroides merdae; assay: Antibacterial activity against Parabacteroides merdae by CLSI M11-A6 agar dilution method
# [3] = test system: Clostridium bolteae; assay: Antibacterial activity against Clostridium bolteae by CLSI M11-A6 agar dilution method; conditions: Enterocloster bolteae
# [4] = test system: Ruminococcus albus; assay: Antibacterial activity against Ruminococcus albus by CLSI M11-A6 agar dilution method; conditions: Hominimerdicola alba
# [5] = test system: Eggerthella lenta; assay: Antibacterial activity against Eggerthella lenta by CLSI M11-A6 agar dilution method
# [6] = test system: Peptoniphilus asaccharolyticus; assay: Antibacterial activity against Peptoniphilus asaccharolyticus by CLSI M11-A6 agar dilution method
# [7] = test system: Clostridioides difficile; assay: Antibacterial activity against Clostridium difficile by CLSI M11-A6 agar dilution method
# [8] = test system: Hoylesella oralis; assay: Antibacterial activity against Prevotella oralis by CLSI M11-A6 agar dilution method
# [9] = test system: Coriobacterium; assay: Antibacterial activity against […] by CLSI M11-A6 agar dilution method
# [10] = test system: Enterocloster clostridioformis; assay: Antibacterial activity against Clostridium clostridioforme by CLSI M11-A6 agar dilution method
# [11] = test system: Clostridium subterminale; assay: Antibacterial activity against Clostridium subterminale by CLSI M11-A6 agar dilution method
# [12] = test system: Ruminococcus torques; assay: Antibacterial activity against Ruminococcus torques by CLSI M11-A6 agar dilution method; conditions: Mediterraneibacter torques
# [13] = test system: Clostridium leptum; assay: Antibacterial activity against Clostridium leptum by CLSI M11-A6 agar dilution method
# [14] = test system: Clostridium beijerinckii; assay: Antibacterial activity against Clostridium beijerinckii by CLSI M11-A6 agar dilution method
# [15] = test system: Peptostreptococcus anaerobius; assay: Antibacterial activity against Peptostreptococcus anaerobius by CLSI M11-A6 agar dilution method
# [16] = test system: Bacteroides thetaiotaomicron; assay: Antibacterial activity against Bacteroides thetaiotaomicron by CLSI M11-A6 agar dilution method
# [17] = test system: Clostridium sporogenes; assay: Antibacterial activity against Clostridium sporogenes by CLSI M11-A6 agar dilution method
# [18] = test system: Clostridium hathewayi; assay: Antibacterial activity against Clostridium hathewayi by CLSI M11-A6 agar dilution method; conditions: Hungatella hathewayi
# [19] = test system: Paeniclostridium sordellii; assay: Antibacterial activity against Clostridium sordellii by CLSI M11-A6 agar dilution method; conditions: Paraclostridium sordellii
# [20] = test system: Blautia producta; assay: Antibacterial activity against Ruminococcus productus by CLSI M11-A6 agar dilution method
# [21] = test system: Bilophila wadsworthia; assay: Antibacterial activity against Bilophila wadsworthia by CLSI M11-A6 agar dilution method
# [22] = test system: Prevotella corporis; assay: Antibacterial activity against Prevotella corporis by CLSI M11-A6 agar dilution method
# [23] = test system: Bifidobacterium dentium; assay: Antibacterial activity against Bifidobacterium dentium by CLSI M11-A6 agar dilution method
# [24] = test system: Clostridium sporosphaeroides; assay: Antibacterial activity against Clostridium sporosphaeroides by CLSI M11-A6 agar dilution method; conditions: Faecalispora sporosphaeroides
# [25] = test system: Coprobacillus cateniformis; assay: Antibacterial activity against Coprobacillus cateniformis by CLSI M11-A6 agar dilution method
# [26] = test system: Propionibacterium propionicum; assay: Antibacterial activity against Propionibacterium propionicus by CLSI M11-A6 agar dilution method; conditions: Arachnia propionica
# [27] = test system: Parvimonas micra; assay: Antibacterial activity against Peptostreptococcus micros by CLSI M11-A6 agar dilution method
# [28] = test system: Clostridium celerecrescens; assay: Antibacterial activity against Clostridium celerecrescens by CLSI M11-A6 agar dilution method; conditions: Lacrimispora celerecrescens
# [29] = test system: Bifidobacterium pseudolongum; assay: Antibacterial activity against Bifidobacterium pseudolongum by CLSI M11-A6 agar dilution method
# [30] = test system: Bacteroides ovatus; assay: Antibacterial activity against Bacteroides ovatus by CLSI M11-A6 agar dilution method
# [31] = test system: Bifidobacterium bifidum; assay: Antibacterial activity against Bifidobacterium bifidum by CLSI M11-A6 agar dilution method
# [32] = test system: Finegoldia magna; assay: Antibacterial activity against Finegoldia magna by CLSI M11-A6 agar dilution method
# [33] = test system: Ruminococcus gnavus; assay: Antibacterial activity against Ruminococcus gnavus by CLSI M11-A6 agar dilution method; conditions: Mediterraneibacter gnavus
# [34] = test system: Prevotella bivia; assay: Antibacterial activity against Prevotella bivia by CLSI M11-A6 agar dilution method
# [35] = test system: Ruminococcus lactaris; assay: Antibacterial activity against Ruminococcus lactaris by CLSI M11-A6 agar dilution method
# [36] = test system: Ruminococcus obeum; assay: Antibacterial activity against Ruminococcus obeum by CLSI M11-A6 agar dilution method; conditions: Blautia obeum
# [37] = test system: Parabacteroides distasonis; assay: Antibacterial activity against Parabacteroides distasonis by CLSI M11-A6 agar dilution method
# [38] = test system: Clostridium sp.; assay: Antibacterial activity against Clostridium sp. by CLSI M11-A6 agar dilution method
# [39] = test system: Prevotella nigrescens; assay: Antibacterial activity against Prevotella nigrescens by CLSI M11-A6 agar dilution method
# [40] = test system: Blautia luti; assay: Antibacterial activity against Ruminococcus luti by CLSI M11-A6 agar dilution method
# [41] = test system: Streptococcus anginosus; assay: Antibacterial activity against Streptococcus anginosus by CLSI M11-A6 agar dilution method
# [42] = test system: Sutterella wadsworthensis; assay: Antibacterial activity against Sutterella wadsworthensis by CLSI M11-A6 agar dilution method
# [43] = test system: Hoylesella loescheii; assay: Antibacterial activity against Prevotella loescheii by CLSI M11-A6 agar dilution method
compound,measurement,setting,value
CC(=O)NC[C@H]1CN(c2ccc(N3CCOCC3)c(F)c2)C(=O)O1 [LINEZOLID],MIC50,[1],2 µg/mL
same,MIC90,[1],2 µg/mL
same,MIC50,[2],4 µg/mL
same,MIC90,[2],4 µg/mL
same,MIC50,[3],4 µg/mL
same,MIC90,[3],4 µg/mL
same,MIC50,[4],2 µg/mL
same,MIC90,[4],4 µg/mL
same,MIC50,[5],1 µg/mL
same,MIC90,[5],8 µg/mL
same,MIC50,[6],1 µg/mL
same,MIC90,[6],2 µg/mL
same,MIC50,[7],2 µg/mL
same,MIC90,[7],16 µg/mL
same,MIC50,[8],2 µg/mL
same,MIC90,[8],2 µg/mL
same,MIC50,[9],1 µg/mL
same,MIC90,[9],8 µg/mL
same,MIC50,[10],4 µg/mL
same,MIC90,[10],4 µg/mL
same,MIC50,[11],4 µg/mL
same,MIC90,[11],4 µg/mL
same,MIC50,[12],2 µg/mL
same,MIC90,[12],4 µg/mL
same,MIC50,[13],2 µg/mL
same,MIC90,[13],4 µg/mL
same,MIC50,[14],2 µg/mL
same,MIC90,[14],4 µg/mL
same,MIC50,[15],1 µg/mL
same,MIC90,[15],2 µg/mL
same,MIC50,[16],4 µg/mL
same,MIC90,[16],8 µg/mL
same,MIC50,[17],2 µg/mL
same,MIC90,[17],4 µg/mL
same,MIC50,[18],2 µg/mL
same,MIC90,[18],4 µg/mL
same,MIC50,[19],2 µg/mL
same,MIC90,[19],4 µg/mL
same,MIC50,[20],2 µg/mL
same,MIC90,[20],4 µg/mL
same,MIC50,[21],4 µg/mL
same,MIC90,[21],16 µg/mL
same,MIC50,[22],2 µg/mL
same,MIC90,[22],2 µg/mL
same,MIC50,[23],1 µg/mL
same,MIC90,[23],8 µg/mL
same,MIC50,[24],2 µg/mL
same,MIC90,[24],4 µg/mL
same,MIC50,[25],1 µg/mL
same,MIC90,[25],8 µg/mL
same,MIC50,[26],1 µg/mL
same,MIC90,[26],8 µg/mL
same,MIC50,[27],1 µg/mL
same,MIC90,[27],2 µg/mL
same,MIC50,[28],2 µg/mL
same,MIC90,[28],4 µg/mL
same,MIC50,[29],1 µg/mL
same,MIC90,[29],8 µg/mL
same,MIC50,[30],4 µg/mL
same,MIC90,[30],4 µg/mL
same,MIC50,[31],1 µg/mL
same,MIC90,[31],8 µg/mL
same,MIC50,[32],1 µg/mL
same,MIC90,[32],2 µg/mL
same,MIC50,[33],2 µg/mL
same,MIC90,[33],2 µg/mL
same,MIC50,[34],2 µg/mL
same,MIC90,[34],2 µg/mL
same,MIC50,[35],2 µg/mL
same,MIC90,[35],4 µg/mL
same,MIC,[36],1 µg/mL
same,MIC50,[36],1 µg/mL
same,MIC90,[36],2 µg/mL
same,MIC50,[37],4 µg/mL
same,MIC90,[37],4 µg/mL
same,MIC50,[38],2 µg/mL
same,MIC90,[38],4 µg/mL
same,MIC50,[39],2 µg/mL
same,MIC90,[39],2 µg/mL
same,MIC50,[40],2 µg/mL
same,MIC90,[40],4 µg/mL
same,MIC50,[41],2 µg/mL
same,MIC90,[41],4 µg/mL
same,MIC,[42],> 128 µg/mL
same,MIC50,[42],> 128 µg/mL
same,MIC90,[42],> 128 µg/mL
same,MIC50,[43],2 µg/mL
same,MIC90,[43],2 µg/mL
